Consider one compound from patent US9211349B2, “Molecular probes for multimodality imaging of anionic membrane surfaces” (Molecular Targeting Technologies, Inc., priority 2012, dated 2015).

Broadly, the IC50 is the midpoint of a concentration-inhibition curve. A high value points to weaker potency.

The structures appear in SMILES notation.

This experiment relates to U87MG cells. In words: MTT assay, cytotoxicity of paclitaxel on U87MG cells. The experiment is classed as cell-based, human. On the procedure:
A U87MG human glioblastoma cell line was obtained from the American Type Culture Collection (Manassas, Va., USA). U87MG glioma cells were grown in Dulbecco's modified medium (USC Cell Culture Core, Los Angeles, Calif., USA) supplemented with 10% fetal bovine serum at 37° C. in humidified atmosphere containing 5% CO2.
The toxicity of paclitaxel to U87MG cells was determined by a colorimetric assay with 3-(4,5-dimethylthiazol-2-yl)-2,5-diphenyl tetrazolium bromide (MTT; Alfa Aesar). All studies were performed with triplicate samples and repeated at least three times. Briefly, cells were harvested by trypsinization, resuspended in Dulbecco's modified medium, and plated in a 96-well plate at 4,000 cells per well. After treatment with different doses of paclitaxel (ranging from 1 nM to 500 nM) for 16 hours, 22 μL of 0.5 mg/mL sterile filtered MTT was added to each well. The un-reacted dye was removed after 4 hours of incubation, and the insoluble formazan crystals were dissolved in 150 μL of DMSO. The absorbance at 490 nm was measured with a microplate reader (SpectraMax M2e, Molecular Devices, CA).
FIG. 3 is a graph illustrating cytotoxicity of paclitaxel on U87MG cells determined by MTT assay. The best-fit 50% inhibitory concentration (IC50) values were calculated by fitting the data with nonlinear regression using Graph-Pad Prism 5.0 (Graph-Pad Software, San Diego, Calif.).
In general terms: Tetrazolium dyes change colour on reduction, which living cells bring about.

Take `CC(=O)O[C@H]1C(=O)[C@@]2(C)[C@H]([C@H](OC(=O)c3ccccc3)[C@]3(O)C[C@H](OC(=O)[C@H](O)[C@@H](NC(=O)c4ccccc4)c4ccccc4)C(C)=C1C3(C)C)[C@]1(OC(C)=O)CO[C@@H]1C[C@@H]2O` [paclitaxel]: the “sensitivity of U87MG cells to treatment” value (1 nM to 500 nM, 16 hours) is on record as “sensitive”. Further, the IC50 (Homo sapiens, U-87 MG, after 16 hours of incubation) amounted to 61.4 nM.
